The values below come from US20250146012A1 (priority 2011, published 2025).

Series [1] has as its system non-transgenic, wild-type Coker 130. Briefly: Year 1 efficacy field trial, wild-type control. The class given is in vivo, Gossypium hirsutum. The conditions noted are these: sequential regimen: dicamba 1 lb/A preemergence, 5 node, 12 node; glufosinate 1.09 lb/A at 2 node and 8 node; FIG. 7.
Procedure: (§1) In year 1, efficacy testing was conducted with eight events compared to non-transgenic, wild-type Coker 130. For this testing, paired plots were sprayed with dicamba (Clarity®, BASF, Research Triangle Park, NC) and glufosinate (Ignite®, Bayer CropScience, Research Triangle Park, NC) or left unsprayed. The plots were maintained weed-and insect-free using conventional control programs for the duration of the trial. […] For plots that were sprayed, the following applications were conducted: dicamba was applied preemergence at 1 lb/A followed by glufosinate applied 1.09lb/A at the 2 node stage, followed by dicamba applied at 1 lb/A at the 5 node stage, followed by glufosinate applied 1.09 lb/A at the 8 node stage, followed by dicamba applied at 1 lb/A at the 12 node stage. Neither dicamba nor glufosinate were applied with surfactants, fertilizer additive, or other adjuvant. […] Plots were harvested and yield recorded as lbs/plot of seed cotton and expressed as lb/acre of seed cotton. […]
In series [2] the test system is wild-type cotton (Coker 130). In words: Year 2 efficacy field trial, wild-type plots. The conditions noted are these: 1× rate (0.5 lb/A), half plot each herbicide, at one post-emergence timing (Early, Mid, Late). The class given is in vivo, Gossypium hirsutum.
Procedure: In year 2, efficacy testing was conducted with twelve events compared to non-transgenic, wild-type Coker 130. For this testing, paired plots were either sprayed or not sprayed. The plots were maintained weed-and insect-free using conventional control programs for the duration of the trial. For the plots that were sprayed, the following treatment applications were conducted (1) 0.5 lb/A dicamba applied PRE, Early POST, Mid POST and Late POST; (2) 1 lb/A dicamba applied PRE, Early POST, Mid POST and Late POST; (3) 2 lb/A dicamba applied PRE, Early POST, Mid POST and Late POST; (4) 0.5 lb/A glufosinate applied Early POST, Mid POST and Late POST: (5) 1 lb/A glufosinate applied Early POST, Mid POST and Late POST: 6) 2 lb/A glufosinate applied Early POST, Mid POST and Late POST; and 7) Control (unsprayed). Preemergence (PRE) is defined as immediately after cotton planting (within 24 hours); Early POST as 2-node cotton; Mid POST as 8-node cotton; and Late POST as 14 node cotton. […]
At each rating time, the following observations were recorded: 1) percent necrosis or burn on the most affected leaves; 2) percent necrosis or burn on a whole-plant basis; 3) epinasty; and 4) any other relevant injury that was observed. […] Plots were harvested and recorded as lbs/plot of seedcotton and expressed as lb/acre of seedcotton.
For series [3], the system named is plants comprising the MON 88701 event. Format: in vivo, Gossypium hirsutum. The procedure:
In year 3, efficacy field testing of event MON 88701 was conducted to study the rate and timing of application of dicamba and/or glufosinate. […] The treatment and application timing are detailed in Table 2. […] The sprayer protocol was as described for year 2 efficacy field testing. Stand rating, visual injury rating (percent epinasty, percent necrosis), plant height and node number, 50-boll sampling, and yield determinations were as described for agronomic and efficacy field testing above.

Series [4] deals with transgenic cotton events (eight events).
Procedure: as §1
Series [5] relates to plants comprising the MON 88701 event.
Procedure: In year 2, efficacy testing was conducted with twelve events compared to non-transgenic, wild-type Coker 130. For this testing, paired plots were either sprayed or not sprayed. The plots were maintained weed-and insect-free using conventional control programs for the duration of the trial. For the plots that were sprayed, the following treatment applications were conducted (1) 0.5 lb/A dicamba applied PRE, Early POST, Mid POST and Late POST; (2) 1 lb/A dicamba applied PRE, Early POST, Mid POST and Late POST; (3) 2 lb/A dicamba applied PRE, Early POST, Mid POST and Late POST; (4) 0.5 lb/A glufosinate applied Early POST, Mid POST and Late POST: (5) 1 lb/A glufosinate applied Early POST, Mid POST and Late POST: 6) 2 lb/A glufosinate applied Early POST, Mid POST and Late POST; and 7) Control (unsprayed). Preemergence (PRE) is defined as immediately after cotton planting (within 24 hours); Early POST as 2-node cotton; Mid POST as 8-node cotton; and Late POST as 14 node cotton. For these efficacy field trials, there were three plots composed entirely of wild-type cotton (Coker 130). At each post-emergence timing (Early, Mid, Late), one-half of a plot was sprayed with the 1× rate (0.5 lb/A) of dicamba and one-half of the same plot was sprayed with the 1× rate (0.5 lb/A) of glufosinate. Each of the three plots received dicamba and glufosinate spray at one of the post-emergence timing spray applications (Early, Mid, Late).
XR TeeJet® extended range flat spray tips with an 80-degree spray angle were used (TeeJet Technologies, Wheaton, IL). There were 2 nozzles per row (nozzles spaced at 15″ for 30″ rows, 19″ for 38″ rows and 20″ for 40″ rows). Nozzle size depended on sprayer speed and nozzle spacing; however, nozzle size was selected to result in a spray pressure of 25 to 35 PSI. Boom height was adjusted to allow for 50% spray overlap (which occurs at roughly 30″ above the top of the crop).
At each rating time, the following observations were recorded: 1) percent necrosis or burn on the most affected leaves; 2) percent necrosis or burn on a whole-plant basis; 3) epinasty; and 4) any other relevant injury that was observed. Ratings were taken four days after each application and immediately prior to subsequent applications. […] Plots were harvested and recorded as lbs/plot of seedcotton and expressed as lb/acre of seedcotton.

Where two headings read alike, the source gives them in different places.

For the molecule `COc1c(Cl)ccc(Cl)c1C(=O)O` [dicamba, 3,6-dichloro-2-methoxybenzoic acid], in series [1], the “survival of the spray regimen” value is “did not survive”. Moreover, the “survival of herbicide spray” value in series [2] was “did not survive”. Also, the yield of seedcotton result in series [3] (in vivo) was “no yield loss”. The “yield of seed cotton, paired sprayed and unsprayed events compared to unsprayed wild-type Coker 130” value in series [4] (in vivo) is given as “no significant difference”. In series [5] (in vivo), the “injury rating with increasing application rates of dicamba” value is given as “increased percentage of injury” and the “yield of seedcotton with increasing application rates of dicamba” value is “nearly equivalent”.

With “2-amino-4-(hydroxymethylphosphinyl)butanoic acid [glufosinate]”, the “survival of the spray regimen” value in series [1] is “did not survive”. Also, the “survival of herbicide spray” value in series [2] was “did not survive”. Also, the yield of seedcotton result in series [3] (all other treatment regimens of Table 2 (0.25-1 lb ai/A, four timings), FIG. 6) is given as “no yield loss”. Also, in series [4] (sequential regimen: dicamba 1 lb/A preemergence, 5 node, 12 node, glufosinate 1.09 lb/A at 2 node and 8 node, FIG. 3), the “yield of seed cotton, paired sprayed and unsprayed events compared to unsprayed wild-type Coker 130” value is reported as “no significant difference”. Moreover, in series [5] (0.5, 1, 2 lb/A glufosinate Early, Mid, Late POST, FIG. 5.B), the “injury rating with increasing application rates of glufosinate” value is “increased percentage of injury”. For the same molecule, in series [5] (0.5, 1, 2 lb/A glufosinate applied Early POST, Mid POST and Late POST, FIG. 4.B), the “yield of seedcotton with increasing application rates of glufosinate” value was “nearly equivalent”.
